Results reported in article PMC10108266, “Pharmacokinetic characteristics of golidocitinib, a highly selective JAK1 inhibitor, in healthy adult participants” (Frontiers in Immunology, 2023).
Read-outs that look alike come from different tables or passages of the source.

How the values were obtained:
[1] = JACKPOT2 MAD urinary PK (Day 14); format: in vivo, human; details: for CLtotal: CL/F * F (0.7 from PBPK model); for Fe0-t: CLr/CLtotal; for Ae0-t: urine 0-24 hour on Day 14; for CL renal: human, oral
Excerpt: In the SAD cohorts, serial blood samples were obtained on Day 1 at pre-dose, and at 0.5, 1, 1.5, 2, 3, 4, 6, 10, 14, 24 (Day 2), 48 (Day 3), 72 (Day 4), 120 (Day 6), 168 (Day 8) and 216 (Day 10) hours post-dose for plasma PK analysis. A similar sampling schedule was undertaken for the MAD cohorts on Day 1 and Day 14, with additional trough samples obtained on Days 5, Day 8, and Day 11. In the MAD cohorts, urine samples were collected on Day 14 during the collection intervals of 0-4, 4-10, and 10-24 hours following the last dose for urine PK analysis. Plasma and urine samples were analyzed by Frontage Laboratories Inc. (New Jersey, USA) using a validated LC/MS/MS bioanalytical method to determine golidocitinib concentrations. Cross validation in plasma was successful between Frontage Laboratories Inc. (New Jersey, USA) and Frontage Laboratories Inc. (Shanghai) using clinical samples and spiked quality control samples.
The mean (SD) amount of golidocitinib excreted in the urine over the collection period and renal clearance are presented in Table 2B . The average amount of golidocitinib excreted in the urine increased in an approximately dose proportional manner from 25 mg to 100 mg. […] The renal excretion fraction (Fe0-t) is helpful to compare the renal clearance (CLr) with total clearance (CLtotal) and determine the contribution of renal clearance in the drug elimination. It was calculated by the equation Fe0-t = CLr/CLtotal. The CL/F values were obtained from the two Phase I studies after the oral administration. Since the pharmacokinetics of golidocitinib after intravenous injection was not studied, the bioavailability value (F) was calculated by physiologically based pharmacokinetic (PBPK) model that incorporated compound specific information and independent prior knowledge on the physiology and biology at the organism.

JAK1 = system: JAK1; parameters: method as in PMID 32297743; details: ref [9]; cited from earlier work
Permeability in vitro = format: in vitro ADME
Solubility in vitro = format: physicochemical
[2] = Clearance pathways (available data); format: in vivo, human
[3] = Safety (TEAEs), JACKPOT2 food effect cohort; format: in vivo, human
Excerpt: Safety assessments included monitoring of adverse events/serious adverse events, clinical safety laboratory tests (clinical chemistry, hematology, coagulation, and urinalysis tests), 12-lead ECG, vital signs (blood pressure, pulse rate, and respiratory rate), and pulmonary function. All adverse events were coded using the Medical Dictionary for Regulatory Activities (MedDRA), version 22.0. The CTCAE 5.0 was used to define the intensity of AEs.

[4] = JACKPOT2 food effect cohort (50 mg, fasted vs high-fat meal); format: in vivo, human; details: for AUC0-inf, Geometric Mean Ratio (90% CI) (Test vs Reference) / AUC0-t, Geometric Mean Ratio (90% CI) (Test vs Reference) / Cmax, Geometric Mean Ratio (90% CI) (Test vs Reference) / AUC(0-inf) / AUC(0-t) / Cmax: 50 mg; for AUC0-inf, Geometric Mean Ratio (90% CI) (Test vs Reference) / AUC0-t, Geometric Mean Ratio (90% CI) (Test vs Reference) / Cmax, Geometric Mean Ratio (90% CI) (Test vs Reference): fed versus fasted, percent ratio of geometric least square means; for AUC(0-inf): read-out: AUC0-inf, Geometric mean (%CV); for AUC(0-t): read-out: AUC0-t, Geometric mean (%CV); for Cmax: read-out: Cmax, Geometric mean (%CV)
Procedure: A total of 42 and 24 healthy participants were enrolled in part A and part B, respectively. In part A, a total of 30 participants were randomized into 5 SAD cohorts (n = 6 per cohort) and received a single dose of golidocitinib at different dose levels or a matching placebo in a 4:2 ratio. In the food effect cohort, a total of 12 participants were enrolled and received the study drug under fasted or fed conditions, with a sequential design. The 50 mg dose was selected based on available safety data after the completion of the SAD cohorts, and also on the outcomes from PK/PD modeling for potential efficacious dose for autoimmune disease. On Day 1, participants took a single dose of golidocitinib under fast condition. After a 14-day wash-out period, on Day 15, participants received another single dose of golidocitinib immediately after a standard high-fat meal. Food recipes and contents are consistent with that described in FDA Guidance for Food-Effect Bioavailability studies ([10]). For the fed condition, keeping fasted for at least 10 hours, participants started ingestion of high-fat meal 30 minutes prior to administration of golidocitinib. They had to finish the meal within 30 minutes or less, and no food was allowed for at least 4 hours post-dose. In part B, a total of 24 participants were randomized into 3 MAD cohorts, with 8 in each cohort (active:placebo = 6:2). In these cohorts, participants received golidocitinib at different dose levels or placebo once daily dosing for 14 days. Dose escalation was based on available PK and safety data in the previous cohorts.
For food effect assessment, log-transformed PK parameters (AUC0-t, AUC0-inf, and Cmax) of golidocitinib were analyzed using a mixed-effect model including terms for study treatment (fasted and fed) as fixed effects, and participants nested within treatment as a random effect. The CIs on the ratios of untransformed PK parameters were derived through a reverse transformation of the 90% CIs for the differences of the means in the log scale from the mixed-effect model. Least-squares geometric means, a ratio of the geometric means and 90% CIs on the ratio of fed to fasted were presented.

[5] = human, plasma, oral, 50 mg single dose, Fasted (Reference), N = 12
[6] = human, plasma, oral, 50 mg single dose, High-fat meal (Test), N = 11

## COc1nn(C)cc1Nc1nccc(-c2c[nH]c3c(NC(=O)[C@@H](C)N4CCN(C)CC4)cccc23)n1 [golidocitinib, (2R)-N-[3-[2-[(3-Methoxy-1-methyl-pyrazol-4-yl)amino]pyrimidin-4-yl]-1H-indol-7-yl]-2-(4-methylpiperazin-1-yl)propenamide]
[1]; 25 mg once daily 14 days
  CLtotal: 15.2 L/h
  Fe0-t: 20.9%
[1]; 25 mg once daily 14 days, mean (SD)
  Ae0-t: 4.94 (1.23) mg
[1]; 50 mg once daily 14 days
  CLtotal: 15.5 L/h
  Fe0-t: 23.9%
[1]; 50 mg once daily 14 days, mean (SD)
  Ae0-t: 11.7 (1.69) mg
[1]; 100 mg once daily 14 days
  CLtotal: 13.4 L/h
  Fe0-t: 20.2%
[1]; 100 mg once daily 14 days, mean (SD)
  Ae0-t: 19.2 (4.11) mg
[1]; urine and plasma, 25 mg once daily 14 days, Ae0-t/AUC0-t, mean (SD), read-out: CLr (converted)
  CL renal: 53 mL/min
[1]; urine and plasma, 50 mg once daily 14 days, Ae0-t/AUC0-t, mean (SD), read-out: CLr (converted)
  CL renal: 61.5 mL/min
[1]; urine and plasma, 100 mg once daily 14 days, Ae0-t/AUC0-t, mean (SD), read-out: CLr (converted)
  CL renal: 45.2 mL/min
[1]; urine, US participants, 25 mg to 100 mg, read-out: mean renal clearance
  CL renal: 45.2 to 61.5 mL/min
JAK1
  selectivity to JAK1 over other JAK family kinases: greater than 200 folds
Permeability in vitro
  permeability: high permeability
Solubility in vitro
  solubility: high solubility
[2]
  hepatic clearance, share of clearance: 70-80%
  renal excretion, share of clearance: 20-30%
[3]; 50 mg (Fasted), n = 12
  Alanine Aminotransferase Increased: 1 (8.3%) n (%)
  Anemia: 0 n (%)
  Aspartate Aminotransferase Increased: 0 n (%)
  Blood Lactate Dehydrogenase Increased: 0 n (%)
  Blood and Lymphatic System Disorders: 0 n (%)
  Cardiac Disorders: 1 (8.3%) n (%)
  Cough: 0 n (%)
  Extrasystoles: 1 (8.3%) n (%)
  Headache: 0 n (%)
  Investigations: 2 (16.7%) n (%)
  Lipase Increased: 1 (8.3%) n (%)
  Nervous System Disorders: 0 n (%)
  Respiratory, Thoracic and Mediastinal Disorders: 0 n (%)
  Rhinorrhea: 0 n (%)
  Subjects with at least one TEAE: 3 (25.0%) n (%)
[3]; 50 mg (Fed), n = 11
  Alanine Aminotransferase Increased: 3 (27.3%) n (%)
  Anemia: 1 (9.1%) n (%)
  Aspartate Aminotransferase Increased: 2 (18.2%) n (%)
  Blood Lactate Dehydrogenase Increased: 1 (9.1%) n (%)
  Blood and Lymphatic System Disorders: 1 (9.1%) n (%)
  Cardiac Disorders: 0 n (%)
  Cough: 1 (9.1%) n (%)
  Extrasystoles: 0 n (%)
  Headache: 1 (9.1%) n (%)
  Investigations: 4 (36.4%) n (%)
  Lipase Increased: 1 (9.1%) n (%)
  Nervous System Disorders: 1 (9.1%) n (%)
  Respiratory, Thoracic and Mediastinal Disorders: 2 (18.2%) n (%)
  Rhinorrhea: 2 (18.2%) n (%)
  Subjects with at least one TEAE: 7 (63.6%) n (%)
[3]; 50 mg, fasted state, AE mild, resolved within 2 hours without treatment
  discontinuation due to AE: one subject was discontinued due to an AE of trigeminy
[4]; 50 mg single dose, High-fat meal (Test), N = 11
  tmax, Median (range): 6.00 (4.00, 14.0) hour
[4]
  AUC0-inf, Geometric Mean Ratio (90% CI) (Test vs Reference): 116.5 (111.2, 122.0) %
  AUC0-t, Geometric Mean Ratio (90% CI) (Test vs Reference): 115.0 (109.3, 121.0) %
  Cmax, Geometric Mean Ratio (90% CI) (Test vs Reference): 108.9 (97.81, 121.2) %
[4]; listed as Golidocitinib
  AUC0-inf, Geometric Mean Ratio (90% CI) (Test vs Reference): 116.5 (111.2-122.0) %
  AUC0-t, Geometric Mean Ratio (90% CI) (Test vs Reference): 115.0 (109.3-121.0) %
  Cmax, Geometric Mean Ratio (90% CI) (Test vs Reference): 108.9 (97.81-121.2) %
[4]; [5]
  AUC(0-inf): 2960 ng·h/mL
  AUC(0-t): 2770 ng·h/mL
  Cmax: 68.8 ng/mL
[4]; [6]
  AUC(0-inf): 3400 ng·h/mL
  AUC(0-t): 3230 ng·h/mL
  Cmax: 73.7 ng/mL
[4]; human, plasma, oral, 50 mg single dose, Fasted (Reference), N = 12, read-out: tmax, Median (range)
  Tmax: 6 h
